Reference: ChEMBL document CHEMBL5050831, “Substituted quinoxaline derivatives as inhibitors of pfkfb” (2019)

Assay: Metabolic stability in human liver microsomes at […] in presence of NADPH assessed as intrinsic clearance
Assay type: ADME, Microsome
Conditions: read-out: CLH

- microsomal CLint: 85 µL/min/mg
SMILES: CC(C)[C@H](Nc1cc(-c2ccc3ccn(C)c3c2)c2nccnc2c1)c1cccnc1
